Reference: patent US8663715B2, “Compositions, products, therapeutic uses and procedures for the production and/or crystallization of extracts of Encelia canescens LAM (coronilla de fraile)” (Naturaleza Y Fe Ldta, priority 2010, dated 2014)
Values belong to the compound of their own block, whether it stands above or below them.

Columns and labels:
[1] = Antioxidant evaluation in system lacase-ABTS; type: biochemical
Protocol: In addition, the antioxidant capacity was analyzed using the system lacase-ABTS (2,2-azino-bis-3-ethyl-benzo-thiazolin-6-sulfonic) that allows to establish in a comparative way the oxidation of substrates, denoting of indirect way the antioxidant capacity of a sample (Table 7).

CF-1 strain mice [2] = experiment: Topical analgesic activity: tail formalin test; type: in vivo; conditions: topical 5% solution; from medians of treated and control group
Protocol: The in vivo biological study evaluated the toxicity, oral analgesic activity and topical analgesic activity in the global methanolic extract of Encelia canescens Lam. For these assessments not inbred males CF-1 strain mice were used, whose weight varied between 14 to 20 g and age between 30 to 35 days. In all evaluations, animals were kept in fasting for 12 hours prior to each test with water ad libitum at room temperature.
Each test was carried out with 10 animals, leaving 2 of them as controls, adding these to a “pool” of animal controls, in total were a group of 16 control animals. At the end of the tests, the animals were sacrificed by cervical dislocation, a painless method.
For all tests, the pharmacological effect was calculated using the values of the median, as a measure of central tendency of the data and standard error of the median (SEM) as measure of dispersion.
Results were analyzed by the non-parametric statistical method of Wilcoxon for independent data (Hollander and Wolfe, 1973), considering significant if its p≦0.05.
This test is intended to determine the analgesic activity via topical of global methanol extract (EMG) of Encella canescens Lam. […] Then, the time of licking which makes the mouse at the site of injection for five minutes, was counted. […] The topical analgesic activity was calculated using the following formula. % D=(Cm/Cc)×100 where: % D: percentage of pain. […]

CF-1 strain mice [3] = experiment: Oral analgesia: abdominal twisting induced by acetic acid; type: in vivo; conditions: extract 200 mg/kg in arabic gum, dose of reference drug not given

Antioxidant activity IC50 [1]: 1.97 mg/mL
Compound: Cc1c(C)c2c(c(C)c1O)CCC(C)(C(=O)O)O2 (stereo not drawn) [Trolox ®, Trolox]

Compound: CC(C)Cc1ccc(C(C)C(=O)O)cc1 (stereo not drawn) [Ibuprofen]
% AAT percentage of the topical analgesic activity (% A 1) (CF-1 strain mice [2]): 76.53%

Compound: COc1ccc2cc([C@H](C)C(=O)O)ccc2c1 [Naproxen Sodium, Naproxen sodium]
% E percentage of analgesic effect (with median, final) (CF-1 strain mice [3]): 70%
